# Experimental data as given in US9492471B2, “Methods of treating a disease or disorder associated with Bruton'S Tyrosine Kinase” (Celgene Avilomics Research, Inc., priority 2013, dated 2016).
# Like-named read-outs stand apart in the source and are kept apart here.
# How the values were obtained:
# Assay in all cases: HotSpot kinase profiling
# Assay type in all cases: biochemical
# [1] = target: T1, GRK2 (Homo sapiens, UniProt P25098)
# T1 construct: purchased Reaction Biology Corp
# T1 sequence (P25098 1-689): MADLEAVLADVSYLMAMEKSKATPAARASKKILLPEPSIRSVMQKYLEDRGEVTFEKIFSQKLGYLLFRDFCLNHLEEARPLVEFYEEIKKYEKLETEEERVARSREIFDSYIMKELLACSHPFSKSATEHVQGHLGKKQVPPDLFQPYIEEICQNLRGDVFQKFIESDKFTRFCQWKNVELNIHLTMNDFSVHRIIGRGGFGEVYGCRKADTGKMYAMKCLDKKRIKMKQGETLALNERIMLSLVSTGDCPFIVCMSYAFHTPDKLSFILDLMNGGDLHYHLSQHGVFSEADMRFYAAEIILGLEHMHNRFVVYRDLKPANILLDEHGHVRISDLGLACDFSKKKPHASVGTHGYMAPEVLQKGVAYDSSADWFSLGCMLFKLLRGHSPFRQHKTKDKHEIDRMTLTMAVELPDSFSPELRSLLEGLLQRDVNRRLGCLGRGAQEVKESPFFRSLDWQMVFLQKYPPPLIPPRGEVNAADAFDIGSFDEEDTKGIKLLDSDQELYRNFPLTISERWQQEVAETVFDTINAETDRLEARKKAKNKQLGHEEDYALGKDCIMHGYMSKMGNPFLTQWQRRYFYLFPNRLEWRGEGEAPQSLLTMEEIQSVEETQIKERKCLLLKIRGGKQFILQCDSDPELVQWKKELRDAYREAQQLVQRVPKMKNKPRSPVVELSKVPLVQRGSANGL
# Protocol: (§1) The binding assay system for profiling kinase activity were based upon HotSpot technology (Reaction Biology Corp.; Malvern, Pa., USA) and utilized radio-isotope-based P81 filtration. […] Substrates for the various kinases tested against Compound 2 (substrate information available on the Reaction Biology Corp. website) were prepared fresh daily in Reaction Buffer. Any required cofactors were then added to the substrate solution. The identification and selection of the appropriate cofactor for each kinase is within the ability of a person skilled in the art. See, for example, Handbook of Assay Development in Drug Discovery, Ed. Lisa K. Minor, 2006: CRC Press, Boca Raton, Fla.; Gao et al., “A broad activity screen in support of a chemogenomic map for kinase signalling research and drug discovery,” Biochem J. 2013, 451(2): 313-28; and Eglen et al., “Drug discovery and the human kinome: Recent trends,” Pharmacology & Therapeutics 2011, 130(2): 144-156. The kinase was then added to the substrate solution and gently mixed. […] This was followed by incubation at room temperature for 2 h. The reaction was terminated and any unreacted phosphate was washed away using 0.1% phosphoric acid prior to detection utilizing a proprietary technology. […] DMSO was used as the negative control.
# (§2) Percent inhibition was expressed as an average where the assay was performed more than once, e.g., in duplicate.
# [2] = target: T2, JAK1 (Homo sapiens, UniProt P23458)
# T2 construct: purchased Reaction Biology Corp
# T2 sequence (P23458 whole entry): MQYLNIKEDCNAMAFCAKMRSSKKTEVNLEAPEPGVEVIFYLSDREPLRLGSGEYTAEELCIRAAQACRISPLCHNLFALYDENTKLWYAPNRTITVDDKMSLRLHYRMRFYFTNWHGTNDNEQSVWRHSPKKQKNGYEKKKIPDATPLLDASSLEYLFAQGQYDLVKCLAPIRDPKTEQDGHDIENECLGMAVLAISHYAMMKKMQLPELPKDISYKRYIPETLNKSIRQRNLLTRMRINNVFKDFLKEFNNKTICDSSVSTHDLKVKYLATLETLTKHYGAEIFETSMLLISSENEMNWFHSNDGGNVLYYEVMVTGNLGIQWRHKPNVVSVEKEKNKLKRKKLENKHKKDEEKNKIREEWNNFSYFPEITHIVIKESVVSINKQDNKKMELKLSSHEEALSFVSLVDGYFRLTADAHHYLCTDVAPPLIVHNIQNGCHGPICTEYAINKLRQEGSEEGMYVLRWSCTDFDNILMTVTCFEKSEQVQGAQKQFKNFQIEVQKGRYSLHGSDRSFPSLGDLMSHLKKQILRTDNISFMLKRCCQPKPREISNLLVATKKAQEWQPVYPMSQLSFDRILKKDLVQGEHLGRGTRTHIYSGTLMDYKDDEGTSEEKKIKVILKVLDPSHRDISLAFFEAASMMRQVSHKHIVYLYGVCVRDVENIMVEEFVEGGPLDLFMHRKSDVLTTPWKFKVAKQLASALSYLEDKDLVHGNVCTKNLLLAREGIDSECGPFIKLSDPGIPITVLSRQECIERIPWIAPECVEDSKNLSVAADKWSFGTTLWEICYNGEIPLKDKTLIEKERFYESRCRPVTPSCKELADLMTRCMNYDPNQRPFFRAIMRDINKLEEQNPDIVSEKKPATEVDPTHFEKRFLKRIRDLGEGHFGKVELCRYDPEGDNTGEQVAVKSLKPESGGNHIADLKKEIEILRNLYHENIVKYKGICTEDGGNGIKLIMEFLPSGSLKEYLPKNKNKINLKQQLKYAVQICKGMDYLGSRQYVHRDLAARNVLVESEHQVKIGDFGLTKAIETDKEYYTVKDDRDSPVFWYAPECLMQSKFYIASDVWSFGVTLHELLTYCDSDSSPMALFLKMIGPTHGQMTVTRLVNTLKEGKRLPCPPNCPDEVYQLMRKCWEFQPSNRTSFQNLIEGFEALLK
# Protocol: as §1, §2
# [3] = target: T3, MEK3 (Homo sapiens, UniProt P46734)
# T3 construct: purchased Reaction Biology Corp
# T3 sequence (P46734 1-347): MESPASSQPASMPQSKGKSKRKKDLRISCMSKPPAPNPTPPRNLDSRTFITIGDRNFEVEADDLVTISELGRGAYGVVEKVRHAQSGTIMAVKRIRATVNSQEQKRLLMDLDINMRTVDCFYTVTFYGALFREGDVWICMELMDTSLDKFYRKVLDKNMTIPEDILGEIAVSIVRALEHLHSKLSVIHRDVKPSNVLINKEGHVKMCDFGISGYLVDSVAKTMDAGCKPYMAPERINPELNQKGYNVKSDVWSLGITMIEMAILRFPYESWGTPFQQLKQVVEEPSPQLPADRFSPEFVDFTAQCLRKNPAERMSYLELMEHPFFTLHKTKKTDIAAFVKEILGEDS
# Protocol: as §1, §2
# [4] = target: T4, PDK1/PDPK1 (Homo sapiens, UniProt O15530)
# T4 construct: purchased Reaction Biology Corp
# T4 sequence (O15530 1-556): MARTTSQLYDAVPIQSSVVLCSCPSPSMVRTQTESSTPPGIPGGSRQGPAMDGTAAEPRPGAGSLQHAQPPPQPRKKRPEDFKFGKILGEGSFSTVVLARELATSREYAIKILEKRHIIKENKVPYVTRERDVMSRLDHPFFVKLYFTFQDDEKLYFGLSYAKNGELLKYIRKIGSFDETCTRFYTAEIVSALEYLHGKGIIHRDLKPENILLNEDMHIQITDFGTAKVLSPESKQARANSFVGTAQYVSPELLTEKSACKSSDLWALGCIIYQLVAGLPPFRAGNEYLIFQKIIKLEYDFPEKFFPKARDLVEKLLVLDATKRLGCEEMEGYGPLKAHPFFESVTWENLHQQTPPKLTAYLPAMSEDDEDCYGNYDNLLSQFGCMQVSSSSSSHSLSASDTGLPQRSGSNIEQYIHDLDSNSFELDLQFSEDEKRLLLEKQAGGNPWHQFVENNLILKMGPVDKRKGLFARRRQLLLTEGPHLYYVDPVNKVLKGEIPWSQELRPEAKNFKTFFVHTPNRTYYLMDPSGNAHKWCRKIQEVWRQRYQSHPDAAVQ
# Protocol: as §1, §2
# [5] = target: T5, PKCd (Homo sapiens, UniProt Q05655)
# T5 construct: purchased Reaction Biology Corp
# T5 sequence (Q05655 whole entry): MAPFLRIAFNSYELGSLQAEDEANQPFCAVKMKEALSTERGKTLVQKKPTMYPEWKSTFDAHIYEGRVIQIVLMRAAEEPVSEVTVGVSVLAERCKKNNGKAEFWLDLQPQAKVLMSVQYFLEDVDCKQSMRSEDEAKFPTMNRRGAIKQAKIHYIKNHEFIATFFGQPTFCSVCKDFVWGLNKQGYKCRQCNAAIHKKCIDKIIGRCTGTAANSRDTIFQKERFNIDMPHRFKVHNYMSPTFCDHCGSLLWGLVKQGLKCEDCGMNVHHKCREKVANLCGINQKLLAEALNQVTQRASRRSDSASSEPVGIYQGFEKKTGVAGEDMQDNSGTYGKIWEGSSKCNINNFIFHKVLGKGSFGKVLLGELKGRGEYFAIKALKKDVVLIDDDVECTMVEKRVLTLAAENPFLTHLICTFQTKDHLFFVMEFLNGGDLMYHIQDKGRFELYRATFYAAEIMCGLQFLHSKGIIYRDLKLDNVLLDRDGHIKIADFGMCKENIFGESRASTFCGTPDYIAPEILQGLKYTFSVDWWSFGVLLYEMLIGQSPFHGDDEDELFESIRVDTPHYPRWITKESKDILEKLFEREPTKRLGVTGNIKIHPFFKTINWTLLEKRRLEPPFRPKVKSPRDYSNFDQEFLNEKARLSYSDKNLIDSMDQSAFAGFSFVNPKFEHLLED
# Protocol: as §1, §2
# [6] = target: T6, SGK3/SGKL (Homo sapiens, UniProt Q96BR1)
# T6 construct: purchased Reaction Biology Corp
# T6 sequence (Q96BR1 1-496): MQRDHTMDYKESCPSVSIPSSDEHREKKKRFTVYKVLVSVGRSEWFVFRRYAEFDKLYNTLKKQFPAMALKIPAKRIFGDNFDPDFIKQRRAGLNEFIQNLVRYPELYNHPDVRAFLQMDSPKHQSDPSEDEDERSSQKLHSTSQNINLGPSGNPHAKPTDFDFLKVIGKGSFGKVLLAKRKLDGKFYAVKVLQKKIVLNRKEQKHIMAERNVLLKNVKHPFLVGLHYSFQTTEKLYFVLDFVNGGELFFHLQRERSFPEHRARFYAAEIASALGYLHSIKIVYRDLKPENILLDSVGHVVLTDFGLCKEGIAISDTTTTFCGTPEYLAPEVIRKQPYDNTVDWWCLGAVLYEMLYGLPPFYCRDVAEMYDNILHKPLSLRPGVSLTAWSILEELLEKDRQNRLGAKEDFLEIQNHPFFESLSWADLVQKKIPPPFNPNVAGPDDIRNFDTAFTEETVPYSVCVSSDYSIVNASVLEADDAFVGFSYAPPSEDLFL
# Protocol: as §1, §2
# [7] = read-out: % Enzyme Activity (relative to DMSO controls) Run 1
# [8] = read-out: % Enzyme Activity (relative to DMSO controls) Run 2
compound,measurement,setting,value
C=CC(=O)Nc1cccc(Nc2nc(Nc3ccc(OCCOC)c(F)c3)ncc2F)c1 [Compound 2],inhibition at 3 µM,[1],-4.03%
same,remaining activity at 3 µM,[1]; [7],104%
same,remaining activity at 3 µM,[1]; [8],104%
same,inhibition at 3 µM,[2],40.6%
same,remaining activity at 3 µM,[2]; [7],59.7%
same,remaining activity at 3 µM,[2]; [8],59%
same,inhibition at 3 µM,[3],-15.3%
same,remaining activity at 3 µM,[3]; [7],117%
same,remaining activity at 3 µM,[3]; [8],113%
same,inhibition at 3 µM,[4],-5.96%
same,remaining activity at 3 µM,[4]; [7],107%
same,remaining activity at 3 µM,[4]; [8],105%
same,inhibition at 3 µM,[5],1.78%
same,remaining activity at 3 µM,[5]; [7],100%
same,remaining activity at 3 µM,[5]; [8],96%
same,inhibition at 3 µM,[6],-2.42%
same,remaining activity at 3 µM,[6]; [7],99.5%
same,remaining activity at 3 µM,[6]; [8],105%
